Data reported in US20250188110A1, “SPECIFIC SMALL MOLECULE INHIBITORS THAT BLOCK KMT9 METHYLTRANSFERASE ACTIVITY AND FUNCTION” (ALBERT-LUDWIGS-UNIVERSITÄT FREIBURG, priority 2021, published 2025).
Where two headings read alike, the source gives them in different places.

Legend:
KMT9 [1] = biological target: T1, KMT9 (Homo sapiens, UniProt Q9Y5N5); test: KMT9 thermal shift assay (SyproOrange); format: binding
T1 sequence (Q9Y5N5 1-214): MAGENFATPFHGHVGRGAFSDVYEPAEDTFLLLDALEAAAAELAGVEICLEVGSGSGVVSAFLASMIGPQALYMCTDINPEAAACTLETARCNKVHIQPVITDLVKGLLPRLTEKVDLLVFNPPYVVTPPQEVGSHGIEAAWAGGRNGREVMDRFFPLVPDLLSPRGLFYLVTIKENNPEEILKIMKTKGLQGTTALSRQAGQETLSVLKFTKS
T1 sequence (Q9UI30 1-120 isoform Q9UI30-2 partner): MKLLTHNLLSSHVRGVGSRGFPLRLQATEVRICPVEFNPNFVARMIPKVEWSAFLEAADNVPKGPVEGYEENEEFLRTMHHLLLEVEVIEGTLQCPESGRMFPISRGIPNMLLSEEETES
How it was run: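 Recombinant KMT9 was incubated with compound and SyproOrange at 25° C in 50 mM BTP pH 8.5, 1 mM MgCl2, 1 mM DTT. It was then heated from 20° C to 95° C at 1° C per 15 s with fluorescence read each step. Tm came from a Boltzmann sigmoidal fit; ΔTm relative to DMSO control, binned in 5 K ranges.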

KMT9 [2] = biological target: T1, KMT9; test: Microscale thermophoresis (MST) KMT9 binding
How it was run: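 His-tagged KMT9 (20 nM), RED-Tris-NTA labelled, titrated with varying compound concentrations in 25 mM HEPES pH 7.5, 100 mM NaCl, 1 mM DTT, 0.05% Tween. MST at 40% MST and 100% LED power, Nano-RED excitation; Kd binned A ≤10 nM, B 10–100, C 100–1000, D >1000 nM.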

KMT9 [3] = biological target: T1, KMT9; test: KMT9 methyltransferase inhibition assay, MTaseGlo luminescence (from entry 155); format: biochemical; conditions: 100 nM KMT9, 5 μM ETF1, 1 μM SAM
How it was run: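 KMT9 (100 nM final) pre-incubated with inhibitor for 15 min at room temperature, then reacted with 5 μM ETF1 and 1 μM SAM for 2 h at 30° C. at 2% DMSO final. MTaseGlo luminescence read after 60 min detection; IC50 reported in four potency bins.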

[4] = ΔTm class, 500 uM compound, 2 μM KMT9, read-out: Thermal shift
[5] = His-tag labelled KMT9 20 nM, Kd class, read-out: MST
[6] = IC50 class, MTaseGlo procedure (entries from 155 on), read-out: Inhibition
[7] = 500 µM compound, 2 μM KMT9, read-out: Thermal shift (ΔTm)
[8] = His-tag labelled KMT9 20 nM, read-out: MST (Kd)
[9] = MTaseGlo procedure (entries from 155), read-out: Inhibition (IC50)
[10] = ΔTm, 500 µM compound, 2 μM KMT9, 5X SO, read-out: Thermal shift
[11] = microscale thermophoresis, His-tag labelled KMT9 (20 nM), read-out: MST
[12] = from entry 155: MTaseGlo assay, read-out: Inhibition

ΔTm at 500 µM (KMT9 [1]; [7]) [°C]	Kd (KMT9 [2]; [8]) [nM]	IC50 (KMT9 [3]; [9]) [nM]	Structure (SMILES)	other results
≤ 10	> 1000	> 10000	Nc1ncnc2c1ccn2[C@@H]1C[C@H]([C@H]2CCCN2)[C@@H](O)[C@H]1O [Compound 398, (1R,2S,3R,5R)-3-(4-amino-7H-pyrrolo[2,3-d]pyrimidin-7-yl)-5-((R)-pyrrolidin-2-yl) cyclopentane-1,2-diol]	
10 to 15	100 to 1000	1000 to 10000	CC1CNCCC1[C@H]1C[C@@H](n2cc(-c3nc(Cc4ccccc4)cs3)c3c(N)ncnc32)[C@H](O)[C@@H]1O (stereo partly drawn) [Compound 595, (1R,2S,3R,5R)-3-[4-amino-5-(4-benzyl-1,3-thiazol-2-yl)pyrrolo[2,3-d]pyrimidin-7-yl]-5-(3-methylpiperidin-4-yl)cyclopentane-1,2-diol]	
≤ 10	100 to 1000	1000 to 10000	NCc1cccc([C@H]2C[C@@H](n3ccc4c(N)ncnc43)[C@H](O)[C@@H]2O)c1 [Compound 659, (1R,2S,3R,5R)-3-(4-Amino-7H-pyrrolo[2,3-d]pyrimidin-7-yl)-5-(3-(aminomethyl)phenyl)cyclopentane-1,2-diol]	
10 to 15	10 to 100	100 to 1000	Nc1cc(-c2cnsc2)cc([C@H]2C[C@@H](n3ccc4c(N)nc(Cl)nc43)[C@H](O)[C@@H]2O)c1 [Compound 681, (1R,2S,3R,5R)-3-(4-Amino-2-chloro-7H-pyrrolo[2,3-d]pyrimidin-7-yl)-5-(3-amino-5-(isothiazol-4-yl)phenyl)cyclopentane-1,2-diol]	
≤ 10	100 to 1000	1000 to 10000	Cn1cc([C@H]2C[C@@H](n3ccc4c(N)nc(Cl)nc43)[C@H](O)[C@@H]2O)cn1 [Compound 661, (1R,2S,3R,5R)-3-(4-Amino-2-chloro-7H-pyrrolo[2,3-d]pyrimidin-7-yl)-5-(1-methyl-1H-pyrazol-4-yl)cyclopentane-1,2-diol]	
≤ 10	> 1000	> 10000	Nc1ncnc2c1ccn2[C@@H]1C[C@H](c2cccc(Cl)c2)[C@@H](O)[C@H]1O [Compound 407, (1R,2S,3R,5R)-3-(4-amino-7H-pyrrolo[2,3-d]pyrimidin-7-yl)-5-(3-chlorophenyl) cyclopentane-1,2-diol]	
10 to 15	10 to 100	1000 to 10000	COc1cccc([C@H]2C[C@@H](n3cc(-c4ccn(C)n4)c4c(N)nc(Cl)nc43)[C@H](O)[C@@H]2O)c1 [Compound 671, (1R,2S,3R,5R)-3-(4-amino-2-chloro-5-(1-methyl-1H-pyrazol-3-yl)-7H-pyrrolo[2,3-d]pyrimidin-7-yl)-5-(3-methoxyphenyl)cyclopentane-1,2-diol]	

Continued, molecule first:

Structure (SMILES)	ΔTm at 500 µM (KMT9 [1]; [7]) [°C]	Kd (KMT9 [2]; [8]) [nM]	IC50 (KMT9 [3]; [9]) [nM]	other results
O[C@@H]1[C@H](O)[C@@H](C2=CCCN(CC(F)(F)F)C2)C[C@H]1n1cc(-c2nc(Cc3ccccc3)cs2)c2cnc(Cl)nc21 [Compound 651, (1R,2S,3R,5R)-3-[5-(4-Benzyl-1,3-thiazol-2-yl)-2-chloropyrrolo[2,3-d]pyrimidin-7-yl]-5-[1-(2,2,2-trifluoroethyl)-5,6-dihydro-2H-pyridin-3-yl]cyclopentane-1,2-diol]				ΔTm at 500 µM (KMT9 [1]; [4]): ≤ 10 °C; Kd (KMT9 [2]; [5]): > 1000 nM; IC50 (KMT9 [3]; [6]): > 10000 nM
CNc1ncnc2c1ccn2[C@@H]1C[C@H](c2cn[nH]c2)[C@@H](O)[C@H]1O [Compound 657, (1R,2S,3R,5R)-3-[4-(Methylamino)pyrrolo[2,3-d]pyrimidin-7-yl]-5-(1H-pyrazol-4-yl)cyclopentane-1,2-diol]	≤ 10	> 1000	> 10000	
CCc1cn([C@@H]2C[C@H](CNCCCNCCc3ccc(C(F)(F)F)cc3)[C@@H](O)[C@H]2O)c2ncnc(N)c12 [Compound 379, (1R,2S,3R,5R)-3-(4-amino-5-ethyl-7H-pyrrolo[2,3-d]pyrimidin-7-yl)-5-(((3-((4-(trifluoromethyl)phenethyl)amino)propyl)amino)methyl) cyclopentane-1,2-diol]				ΔTm at 500 µM (KMT9 [1]; [10]): 10 to 15 °C; Kd (KMT9 [2]; [11]): 100 to 1000 nM; IC50 (KMT9 [3]; [12]): 1000 to 10000 nM
Nc1ncnc2c1ccn2[C@@H]1C[C@H](c2ccc3ccccc3c2)[C@@H](O)[C@H]1O [Compound 387, (1R,2S,3R,5R)-3-(4-amino-7H-pyrrolo[2,3-d]pyrimidin-7-yl)-5-(naphthalen-2-yl) cyclopentane-1,2-diol]				ΔTm at 500 µM (KMT9 [1]; [10]): ≤ 10 °C; Kd (KMT9 [2]; [11]): > 1000 nM; IC50 (KMT9 [3]; [12]): > 10000 nM
O[C@@H]1[C@@H](CNCCCNCCc2ccccc2)C[C@@H](n2cc(-c3cc(Cc4ccccc4)cs3)c3cnc(Cl)nc32)[C@@H]1O [Compound 621, (1R,2S,3R,5R)-3-[5-(4-Benzylthiophen-2-yl)-2-chloropyrrolo[2,3-d]pyrimidin-7-yl]-5-[{{3-[(2-phenylethyl)amino]propyl}amino)methyl]cyclopentane-1,2-diol]				ΔTm at 500 µM (KMT9 [1]; [10]): 15 to 20 °C; Kd (KMT9 [2]; [11]): 100 to 1000 nM; IC50 (KMT9 [3]; [12]): 1000 to 10000 nM
Nc1ncnc2c1c(-c1nc(Oc3ccccc3)cs1)cn2[C@@H]1C[C@H](CNCCCNCCc2ccccc2)[C@@H](O)[C@H]1O [Compound 607, (1R,2S,3R,5R)-3-(4-amino-5-(4-phenoxythiazol-2-yl)-7H-pyrrolo[2,3-d]pyrimidin-7-yl)-5-(((3-(phenethylamino)propyl)amino)methyl)cyclopentane-1,2-diol]				ΔTm at 500 µM (KMT9 [1]; [10]): 15 to 20 °C; Kd (KMT9 [2]; [11]): 10 to 100 nM; IC50 (KMT9 [3]; [12]): 100 to 1000 nM
CCc1cn([C@@H]2C[C@H](CNCCCNCCc3ccc(F)cc3)[C@@H](O)[C@H]2O)c2ncnc(N)c12 [Compound 381, (1R,2S,3R,5R)-3-(4-amino-5-ethyl-7H-pyrrolo[2,3-d]pyrimidin-7-yl)-5-(((3-((4-fluorophenethyl)amino)propyl)amino)methyl) cyclopentane-1,2-diol]				ΔTm at 500 µM (KMT9 [1]; [10]): 10 to 15 °C; Kd (KMT9 [2]; [11]): 100 to 1000 nM; IC50 (KMT9 [3]; [12]): 1000 to 10000 nM
CN(CCCNCCc1ccc(F)cc1)C[C@H]1C[C@@H](n2cc(-c3nc(Cc4ccccc4)cs3)c3c(N)nc(Cl)nc32)[C@H](O)[C@@H]1O [Compound 647, (1R,2S,3R,5R)-3-(4-Amino-5-(4-benzylthiazol-2-yl)-2-chloro-7H-pyrrolo[2,3-d]pyrimidin-7-yl)-5-(((3-((4-fluorophenethyl)amino)propyl)(methyl)amino)methyl)cyclopentane-1,2-diol]	> 20	10 to 100	1000 to 10000	
Nc1ncnc2c1ccn2[C@@H]1C[C@H](c2ccn[nH]2)[C@@H](O)[C@H]1O [Compound 391, (1R,2S,3R,5R)-3-(4-amino-7H-pyrrolo[2,3-d]pyrimidin-7-yl)-5-(1H-pyrazol-5-yl) cyclopentane-1,2-diol]				ΔTm at 500 µM (KMT9 [1]; [4]): ≤ 10 °C; Kd (KMT9 [2]; [5]): > 1000 nM; IC50 (KMT9 [3]; [6]): > 10000 nM
Nc1nc(Cl)nc2c1c(-c1ccccc1)cn2[C@@H]1C[C@H](CNCCCNCCc2cccc(Oc3ccccc3)c2)[C@@H](O)[C@H]1O [Compound 564, (1R,2S,3R,5R)-3-(4-amino-2-chloro-5-phenyl-7//pyrrolo[2,3-d]pyrimidin-7-yl)-5-(((3-((3-phenoxyphenethyl)amino)propyl)amino)methyl)cyclopentane-1,2-diol]	> 20	10 to 100	1000 to 10000	
Nc1nc(Cl)nc2c1c(-c1nc(Cc3ccccc3)cs1)cn2[C@@H]1C[C@H](C2CCN(Cc3ccn[nH]3)CC2)[C@@H](O)[C@H]1O [Compound 524, (1R,2S,3R,5R)-3-[4-amino-5-(4-benzyl-1,3-thiazol-2-yl)-2-chloropyrrolo[2,3-d]pyrimidin-7-yl]-5-[1-(2H-pyrazol-3-ylmethyl)piperidin-4-yl]cyclopentane-1,2-diol]	15 to 20	10 to 100	100 to 1000	
Nc1nc(Cl)nc2c1c(-c1nc(Cc3ccccc3)cs1)cn2[C@@H]1C[C@H](C2CCN(CCF)CC2)[C@@H](O)[C@H]1O [Compound 508, (1R,2S,3R)-3-[4-amino-5-(4-benzyl-1,3-thiazol-2-yl)-2-chloropyrrolo[2,3-d]pyrimidin-7-yl]-5-[1-(2-fluoroethyl)piperidin-4-yl]cyclopentane-1,2-diol]	15 to 20	≤ 10	100 to 1000	
O[C@@H]1[C@H](O)[C@@H](C2=CCCN(CCc3ccccc3)C2)C[C@H]1n1cc(-c2nc(Cc3ccccc3)cs2)c2cnc(Cl)nc21 [Compound 588, (1R,2S,3R,5R)-3-[5-(4-Benzyl-1,3-thiazol-2-yl)-2-chloropyrrolo[2,3-d]pyrimidin-7-yl]-5-[1-(2-phenylethyl)-5,6-dihydro-2H-pyridin-3-yl]cyclopentane-1,2-diol]				ΔTm at 500 µM (KMT9 [1]; [4]): ≤ 10 °C; Kd (KMT9 [2]; [5]): > 1000 nM; IC50 (KMT9 [3]; [6]): > 10000 nM
